The record followed here is paper PMC11763059, “GENI as an AMPK Activator Binds α and γ Subunits and Improves the Memory Dysfunction of Alzheimer’s Disease Mouse Models via Autophagy and Neuroprotection” (Antioxidants, 2025).

The subject of one test is MAPK. The test is described as follows: Cellular thermal shift assay (CETSA) in PC12 cells, MAPK. The class given is binding. The settings on record: 10 μM GENI 2 h, 60 °C to 80 °C. As for the experimental part:
In a 60 mm dish containing 5 mL of DMEM, 2 × 10^6 cells were added and incubated for 24 h. In each plate, 10 μM GENI was added and incubated for 2 h. Cells were harvested and heated at a temperature ranging from 60 °C to 80 °C for PC12 cell samples. We obtained a certain amount of cerebral cortex and hippocampus samples, which were added with PBS and ground. After centrifugation, the supernatant was used as a sample, and we measured the protein concentration with a BCA kit (CoWin Biotech Co., Ltd., Taizhou, Jiangsu, China). The protein of the cerebral cortex or hippocampus was incubated with 10 μM GENI at 37 °C for 2 h and heated from 65 °C to 100 °C for the cerebral cortex sample but 43 °C to 67 °C and 65 °C to 100 °C for the hippocampus sample. Equal volumes of supernatant heated at each temperature point for the control and treatment groups were used for Western blot analysis with the antibody for specific proteins.

The subject of the next test is PC12 cells. The test is described as follows: Western blot of LC3 II/LC3 I in the autophagy flow assay. The class given is cell-based. As to conditions: GENI group compared with the control group. The protocol:
Western blot analysis for p-AMPK α, AMPK α, p-mTOR, mTOR, p-ULK1, ULK1, and LC3-I/II was conducted according to the information described in the materials and methods section of Supplementary Information.
1.3. Western blot analysis.
For PC12 cell samples, we seeded 2 × 10^6 PC12 cells in each 60 mm dish containing 5 mL of DMEM and incubated the dish for 24 h. For the dose-dependent experiment of GENI, GENI (1, 3 and 10 μM) was added to the dishes and incubated for a period of time (2 hours for p-AMPK α, AMPK α, 48 hours for p-mTOR, mTOR and p-ULK1, ULK1; 8 hours for LC3-I/II). Cells were then collected, lysed using RAPI lysis buffer and centrifuged. The supernatants of each group were used as protein samples. For the protein samples of autophagy flow assay, we seeded 2 × 10^6 PC12 cells in each 60 mm dish containing 5 mL of DMEM and incubated the dish for 24 h.
The GENI, rapamycin and inhibitors, such as chloroquine and 3-MA were added according to the method of autophagy flow assay. After treatment of 18 h, cells were then collected, lysed using RAPI lysis buffer and centrifuged. […] The protein concentration was measured with a BCA assay kit (Beijing Cowin Biotech Company, Beijing, China). […] Bands were quantitatively measured using ImageJ software (National Institutes of Health, Bethesda, MD, USA).

For `CC(C)CCOC(=O)C1=CO[C@@H](O[C@@H]2O[C@H](CO)[C@@H](O)[C@H](O)[C@H]2O)C2C(CO)=CCC12` (some centres unmarked) [GENI, Geniposidic 4-isoamyl ester], the “thermal stability of MAPK (CETSA)” value in the test on MAPK is on record as “not obvious”. The “LC3 II at the protein level” value with PC12 cells is “significantly increased”.
